Test results from US9206412B2, “Thioxothiazolidine inhibitors” (Colorado State University Research Foundation, priority 2012, dated 2015).
Several values for one entry are separate records, joined by “and”; a condition that tells them apart may be missing. Equal entries are not always repeated. Entries after “also recorded” stand apart in the source; their conditions may differ. Where two headings read alike, the source gives them in different places.

Assays:
[1] = target: T1, dengue virus capping enzyme (Dengue virus type 2, UniProt P29990); type: binding
T1 sequence (P29990 2492-2758): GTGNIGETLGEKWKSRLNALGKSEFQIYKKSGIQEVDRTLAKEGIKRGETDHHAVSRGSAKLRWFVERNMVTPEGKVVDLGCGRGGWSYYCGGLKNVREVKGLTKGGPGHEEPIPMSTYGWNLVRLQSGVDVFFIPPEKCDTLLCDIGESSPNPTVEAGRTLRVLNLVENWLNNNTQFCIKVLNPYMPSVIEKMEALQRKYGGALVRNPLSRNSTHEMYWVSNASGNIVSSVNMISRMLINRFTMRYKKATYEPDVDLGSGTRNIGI

[2] = target: T1, dengue virus capping enzyme; assay: biochemical; type: binding, dengue virus type 2 (strain 16681)
[3] = target: yellow fever virus capping enzyme (Yellow fever virus, UniProt P03314); assay: biochemical; type: binding, yellow fever virus (strain 17D)
[4] = tested on: dengue type 2 virus subgenomic replicon (BHK-pD2hRucPac); assay: Antiviral (replicon) assay, Renilla luciferase; type: cell-based
[5] = tested on: BHK-pD2hRucPac cells; assay: Cell viability (CellTiter-Glo) in replicon assay; details: read-out: Replicon Assay_CC50_M; Table 2-1
[6] = target: WNV; assay: Ki determination, fluorescence polarization (FP_WNV_KI); details: read-out: FP_WNV_KI_AVG_WNV_M; Table 2-1
[7] = tested on: West Nile virus (Kunjin subtype); type: cell-based
[8] = tested on: yellow fever (17D) virus; type: cell-based
[9] = tested on: Sindbis virus pBG451; type: cell-based
[10] = tested on: West Nile virus (Kunjin) RNA; assay: qRT-PCR of Kunjin viral RNA in culture media; type: cell-based
Description: Quantitative Reverse Transcriptase Real-Time PCR Analysis. West Nile virus (Kunjin) RNA was extracted from cell culture media with Trizol LS (Invitrogen, La Jolla, Calif.) following the manufacturer's protocol. Quantitative reverse transcriptase real-time PCR reactions for Kunjin genomic RNA were performed using the Brilliant III Ultra-Fast SYBR QRT-PCR Master Mix (Catalog # 600886, Agilent, Santa Clara, Calif.) with primers Fwd 6170 (5′-[…] (SEQ ID NO: 1)) and Rev 6278 (5′-[…] (SEQ ID NO: 2)). To set up qRT-PCR reactions, 2 μL of extracted RNA was added to 5 μL of 2× master mix, 1 μL of 5 μM Fwd 6170 primer, 1 μL of 5 μM Rev 6278 primer, and 1 μL of 100 mM DTT in 96-well PCR plates with optically clear sealing films. No RNA and no primer controls were included in each experiment. qRT-PCR reactions were performed on a BioRad CFX384 real-time PCR thermal cycler using the following cycling conditions: Reverse transcriptase step=50° C., 10 minutes; denature step=95° C., 3 minutes; PCR (40 cycles)=95° C., 5 seconds/60° C., 10 seconds. Melt curves were performed at the end of each run, to verify the specificity of the detected SYBR signal. Cq values were determined by setting the threshold to 40 for all experiments. Standard curves were generated from diluted media containing Kunjin virus of known titer (PFU/mL), and the Cq values from experimental samples were compared to the standard curve to establish PFU equivalent/mL values for each sample (y=−3.475x+27.577, y=Cq , X=Log10(PFU)). The limit of detection in these experiments was determined to be 10 PFU equivalents/mL. All experiments were performed three times, and the average and standard error of the mean reported.

[11] = tested on: BHK cells
[12] = Cell viability (CellTiter-Glo) in replicon assay; details: hamster, BHK-pD2hRucPac cells (dengue replicon cells)
[13] = tested on: Kunjin virus NS5 protein; assay: Western blot analysis of NS5 in Kunjin infected BHK cells; details: MOI=0.01, 48 hours post-infection, increasing concentrations
[14] = target: dengue capping enzyme (Dengue virus type 2, UniProt P29990); assay: Guanylation inhibition assay
[15] = Table 2-1, read-out: Replicon Assay_EC50_M
[16] = Dengue virus, 72 h, read-out: Replicon EC50, Table 3, 72 hours
[17] = Dengue virus, 72 h, read-out: Replicon EC50, 72 hours
[18] = Dengue virus, read-out: Replicon Assay_EC50_M, Table 2-1
[19] = Replicon Assay_CC50_M, Table 2-1
[20] = Replicon CC50, Table 3, 72 hours

Chain of yellow fever virus capping enzyme (P03314 2507-2774 limits assumed): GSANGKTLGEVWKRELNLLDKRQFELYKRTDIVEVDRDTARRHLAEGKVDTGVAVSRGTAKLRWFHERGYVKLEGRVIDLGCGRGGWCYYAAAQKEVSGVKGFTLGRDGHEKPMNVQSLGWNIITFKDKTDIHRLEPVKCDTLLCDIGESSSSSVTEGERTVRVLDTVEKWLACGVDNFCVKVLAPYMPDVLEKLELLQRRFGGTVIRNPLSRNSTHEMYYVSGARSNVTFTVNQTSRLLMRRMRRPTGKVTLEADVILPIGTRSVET

SMILES: O=C(O)CN1C(=O)/C(=C\c2ccc(-c3ccc(Cl)cc3Cl)o2)SC1=S [2044-5240]
- HTS Activity [1]: M (key: Weak (W)=50%-75% reduction in FP signal; Moderate (M)=76%-90% reduction; Strong (S)=>90% reduction)

SMILES: CC(C)(C)c1cc(C=C2SC(=S)NC2=O)cc(C(C)(C)C)c1O [BG179]
- Ki ([2]; read-out: FP_DEN_Ki_AVG_DEN_M): 2 µM
- Ki ([3]; read-out: FP_YF_KI_AVG_YF_M): 1 µM
- EC50 [4, 15]: 15 µM
- CC50 [5]: 20 µM

SMILES: CC(C)c1ccc(/C=C2\SC(=S)N(CC(=O)O)C2=O)cc1 [BG182]
- Ki ([2]; read-out: FP_DEN_Ki_AVG_DEN_M): 18 µM
- Ki ([3]; read-out: FP_YF_KI_AVG_YF_M): 17 µM
- EC50 [4, 15]: 80 µM
- CC50 [5]: 93 µM

SMILES: CC(C)(C)c1ccc(/C=C2\SC(=S)N(CCC(=O)O)C2=O)cc1 [BG295]
- Ki ([2]; read-out: FP_DEN_Ki_AVG_DEN_M): 2 µM
- Ki ([3]; read-out: FP_YF_KI_AVG_YF_M): 2 µM
- EC50 [4, 15]: 30 µM
- CC50 [5]: 114 µM
- Ki [6]: 8 µM

SMILES: COc1c(I)cc(I)cc1/C=C1\SC(=S)N(CC(=O)O)C1=O [BG308]
- Ki ([2]; read-out: FP_DEN_Ki_AVG_DEN_M): 2 µM
- Ki ([3]; read-out: FP_YF_KI_AVG_YF_M): 4 µM
- EC50 [4, 15]: 97 µM
- CC50 [5]: 276 µM

SMILES: O=C1NC(=S)SC1=Cc1cccc(Cl)c1Cl [BG333]
- Ki ([2]; read-out: FP_DEN_Ki_AVG_DEN_M): 7 µM
- Ki ([3]; read-out: FP_YF_KI_AVG_YF_M): 12 µM
- EC50 [4, 15]: 9 µM
- CC50 [5]: 11 µM

SMILES: COc1c(I)cc(I)cc1/C=C1\SC(=S)N(CC(=O)O)C1=O [BG-5]
- HTS Activity [1]: S (key: Weak (W)=50%-75% reduction in FP signal; Moderate (M)=76%-90% reduction; Strong (S)=>90% reduction)

SMILES: O=C(O)CN1C(=O)/C(=C/c2ccc(Oc3ccccc3)cc2)SC1=S [BG-115]
- HTS Activity [1]: M (key: Weak (W)=50%-75% reduction in FP signal; Moderate (M)=76%-90% reduction; Strong (S)=>90% reduction)

SMILES: O=C(O)CN1C(=O)/C(=C/c2ccc(OCc3ccccc3)cc2)SC1=S [BG-170]
- HTS Activity [1]: W (key: Weak (W)=50%-75% reduction in FP signal; Moderate (M)=76%-90% reduction; Strong (S)=>90% reduction)

SMILES: CC(C)(C)c1ccc(/C=C2/SC(=S)N(CCC(=O)O)C2=O)cc1 [BG-323, (E)-3-(5-(4-tert-butylbenzylidene)-4-oxo-2-thioxo-1,3-thiazolidin-3-yl)propanoic acid]
- Ki ([2]; FP_DEN_Ki_AVG_DEN_M): 7.5 µM
- Ki ([2]; Ki (GTP displacement)): ~7 µM and 7.5 µM and ~10 µM
- Ki ([3]; FP_YF_KI_AVG_YF_M): 9.5 µM
- Ki ([3]; Ki (GTP binding)): ~7 µM
- EC50 [4, 16]: 30.8 µM
- EC50 [4, 17]: 30.8 µM
- EC50 [4, 18]: 30.8 µM
- EC50 ([4]; read-out: Replicon EC50, 72 hours): ~30 µM
- reduction of virus titers [7]: ~3 logs
- reduction of virus titers [8]: slightly less robust effect
- Renilla signal of Sindbis virus [9]: Only a very minor reduction in Renilla signal; also recorded: insensitive
- viral RNA in media with replacement of compound every 24 hours ([10]; 100 μM, fresh media every 24 hours for 72 hours): significantly reduced viral RNA in media over time
- viral RNA detectable in the media ([10]; BHK, Kunjin MOI=0.01, 50 μM or 100 μM, 72 hours post-infection): significantly reduced
- activity after pre-incubation in media at 37° C. ([10]; pre-incubated 3, 2, 1, or 0 days, 50 μM, Kunjin RNA at 72 hours): becomes less active over longer incubation periods
- cell viability [11]: minor reduction in cell viability
- CC50 at 72 h [12, 19]: 184 µM
- CC50 at 72 h [12, 20]: 184 µM
- CC50 at 72 h ([12]; Replicon CC50, text): 184 µM
- viral NS5 protein level [13]: significant decrease in NS5

SMILES: O=C(O)CCN1C(=O)/C(=C/c2cccc(Cl)c2Cl)SC1=S [BG-324]
- Ki ([2]; FP_DEN_Ki_AVG_DEN_M): 10 µM
- Ki ([2]; Ki (GTP displacement)): 9.9 µM
- Ki ([3]; FP_YF_KI_AVG_YF_M): 16 µM
- EC50 [4, 16]: 8.5 µM
- EC50 [4, 18]: 9 µM
- IC50 [14]: 155 µM
- CC50 at 72 h [12, 19]: 12 µM
- CC50 at 72 h [12, 20]: 12 µM

SMILES: O=C(O)CCN1C(=O)/C(=C/c2ccc(Cl)cc2Cl)SC1=S [BG-330]
- Ki ([2]; FP_DEN_Ki_AVG_DEN_M): 10 µM
- Ki ([2]; Ki (GTP displacement)): 9.8 µM
- Ki ([3]; FP_YF_KI_AVG_YF_M): 9 µM
- EC50 [4, 16]: 8.7 µM
- EC50 [4, 18]: 9 µM
- IC50 [14]: 2.6 µM
- CC50 at 72 h [12, 19]: 11 µM
- CC50 at 72 h [12, 20]: 12 µM

SMILES: NC(=O)c1ncn([C@@H]2O[C@H](CO)[C@@H](O)[C@H]2O)n1 [Ribavirin, reference compound]
- EC50 [4, 17]: 12 µM
- CC50 at 72 h ([12]; Replicon CC50, text): 49 µM
